From US20240398737A1, “FUNCTIONALIZED LONG-CHAIN HYDROCARBON MONO- AND DI-CARBOXYLIC ACIDS AND DERIVATIVES THEREOF, AND THEIR USE FOR THE PREVENTION OR TREATMENT OF DISEASE” (Espervita Therapeutics, Inc., priority 2021, published 2024)
Several values for one entry are separate records, joined by “and”; a condition that tells them apart may be missing. Identical values can stand only once.

How the values were obtained:
Format in all cases: biochemical
BMX/ETK = BMX/ETK (Homo sapiens (Human), UniProt P51813); experiment: Wild type kinase screen: BMX/ETK; conditions: compound at 10 μM, 10 μM ATP, Data 1 and Data 2 duplicates
BMX/ETK, sequence (P51813 whole entry): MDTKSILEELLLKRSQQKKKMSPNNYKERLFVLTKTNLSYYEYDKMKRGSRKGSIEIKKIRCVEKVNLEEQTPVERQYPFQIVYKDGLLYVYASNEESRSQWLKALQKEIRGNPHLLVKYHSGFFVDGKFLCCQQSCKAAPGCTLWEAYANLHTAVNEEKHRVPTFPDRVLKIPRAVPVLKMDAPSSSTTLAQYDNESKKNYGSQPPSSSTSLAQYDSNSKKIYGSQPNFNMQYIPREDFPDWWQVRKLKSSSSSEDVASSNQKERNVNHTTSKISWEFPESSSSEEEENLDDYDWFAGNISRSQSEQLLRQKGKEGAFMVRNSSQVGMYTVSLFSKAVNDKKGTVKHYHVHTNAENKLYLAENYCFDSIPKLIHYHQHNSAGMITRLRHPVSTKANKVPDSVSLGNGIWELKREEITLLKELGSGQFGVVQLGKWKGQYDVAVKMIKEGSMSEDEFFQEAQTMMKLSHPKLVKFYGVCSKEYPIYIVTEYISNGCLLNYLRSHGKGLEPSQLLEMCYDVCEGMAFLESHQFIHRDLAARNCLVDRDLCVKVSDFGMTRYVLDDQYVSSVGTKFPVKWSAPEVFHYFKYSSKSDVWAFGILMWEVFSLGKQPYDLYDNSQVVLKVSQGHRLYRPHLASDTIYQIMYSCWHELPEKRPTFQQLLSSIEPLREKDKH

LIMK1 = LIMK1 (Homo sapiens (Human), UniProt P53667); experiment: Wild type kinase screen: LIMK1; conditions: compound at 10 μM, 10 μM ATP, Data 1 and Data 2 duplicates
Human ACC2 = Human ACC2 (Homo sapiens (Human), UniProt O00763); experiment: ACC2 enzymatic assay (ADP-Glo); conditions: recombinant human ACC2 1 nM; 10 concentrations from 300 μM; Runs 1-3; read-out: Compound IC50 (M) ACC2
Human ACC2, sequence (O00763 whole entry): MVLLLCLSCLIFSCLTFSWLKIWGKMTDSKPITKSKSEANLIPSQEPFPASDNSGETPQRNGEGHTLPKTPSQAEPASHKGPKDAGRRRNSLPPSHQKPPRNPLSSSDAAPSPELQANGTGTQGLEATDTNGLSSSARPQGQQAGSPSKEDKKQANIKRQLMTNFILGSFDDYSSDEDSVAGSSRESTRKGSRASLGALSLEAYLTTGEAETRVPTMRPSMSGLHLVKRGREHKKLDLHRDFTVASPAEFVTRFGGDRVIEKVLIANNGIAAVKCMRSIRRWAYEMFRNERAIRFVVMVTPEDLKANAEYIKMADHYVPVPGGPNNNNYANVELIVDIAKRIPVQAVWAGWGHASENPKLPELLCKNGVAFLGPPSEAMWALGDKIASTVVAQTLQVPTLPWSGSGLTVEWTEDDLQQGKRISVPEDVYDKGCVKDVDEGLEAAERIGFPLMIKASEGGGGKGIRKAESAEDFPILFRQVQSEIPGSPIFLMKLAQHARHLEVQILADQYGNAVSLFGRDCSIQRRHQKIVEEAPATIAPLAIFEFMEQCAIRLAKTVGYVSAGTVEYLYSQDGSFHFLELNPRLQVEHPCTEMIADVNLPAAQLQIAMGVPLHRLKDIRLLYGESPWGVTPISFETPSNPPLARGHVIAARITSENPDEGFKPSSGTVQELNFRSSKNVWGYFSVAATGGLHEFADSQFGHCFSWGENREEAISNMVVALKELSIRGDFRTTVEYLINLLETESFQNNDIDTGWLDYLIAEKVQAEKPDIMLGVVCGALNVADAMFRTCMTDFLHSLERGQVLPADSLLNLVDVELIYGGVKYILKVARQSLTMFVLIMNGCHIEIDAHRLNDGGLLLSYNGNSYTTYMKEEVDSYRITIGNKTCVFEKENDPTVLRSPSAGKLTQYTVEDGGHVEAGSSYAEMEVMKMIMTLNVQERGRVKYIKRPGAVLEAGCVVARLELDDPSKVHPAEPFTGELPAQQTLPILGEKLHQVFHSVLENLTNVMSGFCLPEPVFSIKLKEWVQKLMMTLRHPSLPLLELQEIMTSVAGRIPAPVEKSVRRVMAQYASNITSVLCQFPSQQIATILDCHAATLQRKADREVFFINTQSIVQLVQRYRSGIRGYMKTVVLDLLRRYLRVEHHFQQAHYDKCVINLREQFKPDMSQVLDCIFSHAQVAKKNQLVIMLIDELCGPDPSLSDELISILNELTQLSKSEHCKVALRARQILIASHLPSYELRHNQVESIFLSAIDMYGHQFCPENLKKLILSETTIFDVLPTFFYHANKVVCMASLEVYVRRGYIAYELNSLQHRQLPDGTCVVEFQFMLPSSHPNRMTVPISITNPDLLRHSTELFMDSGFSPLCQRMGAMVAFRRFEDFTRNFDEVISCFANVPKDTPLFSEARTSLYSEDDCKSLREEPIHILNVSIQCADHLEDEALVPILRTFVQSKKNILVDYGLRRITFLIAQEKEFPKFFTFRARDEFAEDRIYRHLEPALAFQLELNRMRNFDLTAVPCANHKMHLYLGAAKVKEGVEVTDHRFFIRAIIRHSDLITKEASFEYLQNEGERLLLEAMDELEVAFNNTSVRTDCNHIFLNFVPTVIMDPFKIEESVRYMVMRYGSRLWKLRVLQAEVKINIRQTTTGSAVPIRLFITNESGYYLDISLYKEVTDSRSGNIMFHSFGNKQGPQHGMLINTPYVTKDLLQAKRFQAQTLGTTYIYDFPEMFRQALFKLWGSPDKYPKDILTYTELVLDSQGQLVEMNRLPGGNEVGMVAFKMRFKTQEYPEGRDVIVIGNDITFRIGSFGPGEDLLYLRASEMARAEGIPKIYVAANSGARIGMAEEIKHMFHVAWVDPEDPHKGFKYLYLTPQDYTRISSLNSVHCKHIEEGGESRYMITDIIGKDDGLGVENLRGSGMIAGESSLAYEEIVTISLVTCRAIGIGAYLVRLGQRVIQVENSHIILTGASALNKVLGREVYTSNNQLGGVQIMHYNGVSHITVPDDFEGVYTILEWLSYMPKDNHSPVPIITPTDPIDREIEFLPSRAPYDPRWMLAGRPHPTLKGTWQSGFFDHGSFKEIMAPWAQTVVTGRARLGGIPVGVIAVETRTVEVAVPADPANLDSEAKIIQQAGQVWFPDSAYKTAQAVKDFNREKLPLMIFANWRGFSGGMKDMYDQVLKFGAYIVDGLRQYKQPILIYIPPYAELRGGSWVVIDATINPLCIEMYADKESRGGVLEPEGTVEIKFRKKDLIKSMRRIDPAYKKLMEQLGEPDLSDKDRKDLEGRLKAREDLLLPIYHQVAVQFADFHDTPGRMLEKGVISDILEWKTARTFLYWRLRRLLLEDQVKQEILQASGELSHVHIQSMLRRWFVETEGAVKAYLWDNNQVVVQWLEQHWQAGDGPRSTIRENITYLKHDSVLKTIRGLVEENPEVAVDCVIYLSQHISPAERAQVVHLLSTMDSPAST
Method: (§1) Human ACC1 (Cat #50202 Lot #120830) and ACC2 (Cat #50201 Lot #160217) were obtained from BPS Biosciences, San Diego, CA 92121. Human ACC1 had C-terminal flag and His-tags with a MW of 270 KDa after purification from Baculovirus infected Sf9 cell expression system and came as a solution in 50 mM Tris-HCl, pH 8.0, 500 mM NaCl, 10% glycerol, 1 mM DTT, 100 μg/ml FLAG peptide with 70% purity. The stock concentration was 0.25 mg/ml corresponding to 0.926 μM. Human ACC2 was also purified from Baculovirus infected Sf9 expression system. […] The stock concentration was 0.1 mg/ml corresponding to 0.36 μM. The assay buffer for measuring the activity of ACC contained: 30 mM HEPES (pH 7.4), 2 mM MgCl2, 0.01% Brij35, 2 mM DTT, 1% DMSO (solvent for compound). For ACC1 and ACC2 assays, the following concentrations of substrate and cofactors were used: 12 mM NaHCO3, 10 μM acetyl CoA, 10 μM ATP, and 2 mM K-citrate. The recombinant human enzyme was used at 5 nM for ACC1 and 1 nM for ACC2. In brief, enzyme alone in the above buffer without substrate was used for background. All test materials were dissolved in 100% DMSO using acoustic technology (Echo550). The prepared solution was preincubated for 15 min followed by the addition of 5 μL/well of ADP standard. ATP was then added to start the reaction. The assay contents were spun and briefly shaken followed by incubation at room temperature for 1 h. At the end of completion of assay, 5 μL of ADP-Glo was added to each well to stop the reaction. The contents were mixed, spun and incubated at room temperature for 40 min followed by the addition of 10 μL/well of ADP detection reagent. The contents were spun, mixed and covered with plastic to measure luminescence. […] The light generated, measured in a luminometer, correlates to the amount of ADP generated in the ACC assay, which is indicative of ACC activity.
(§2) The enzyme concentrations for ACC1 and ACC2 were 5 nM and 1 nM, respectively.
Data represent nM or μM ADP produced, % Activity (relative to no inhibitor controls), and curve fits were performed by GraphPad Prism software. The IC50 concentration-response curves were generated for both the ACC1 and ACC2 assays using recombinant human ACC.

Aurora B = Aurora B (Homo sapiens (Human), UniProt Q96GD4); experiment: Wild type kinase screen: Aurora B; conditions: compound at 10 μM, 10 μM ATP, Data 1 and Data 2 duplicates
MLCK/MYLK = MLCK/MYLK (Homo sapiens (Human), UniProt Q15746); experiment: Wild type kinase screen: MLCK/MYLK; conditions: compound at 10 μM, 10 μM ATP, Data 1 and Data 2 duplicates
ERK7/MAPK15 = ERK7/MAPK15 (Homo sapiens (Human), UniProt Q8TD08); experiment: Wild type kinase screen: ERK7/MAPK15; conditions: compound at 10 μM, 10 μM ATP, Data 1 and Data 2 duplicates
RIPK4 = RIPK4 (Homo sapiens (Human), UniProt P57078); experiment: Wild type kinase screen: RIPK4; conditions: compound at 10 μM, 10 μM ATP, Data 1 and Data 2 duplicates
RIPK4, sequence (P57078 whole entry, species assumed): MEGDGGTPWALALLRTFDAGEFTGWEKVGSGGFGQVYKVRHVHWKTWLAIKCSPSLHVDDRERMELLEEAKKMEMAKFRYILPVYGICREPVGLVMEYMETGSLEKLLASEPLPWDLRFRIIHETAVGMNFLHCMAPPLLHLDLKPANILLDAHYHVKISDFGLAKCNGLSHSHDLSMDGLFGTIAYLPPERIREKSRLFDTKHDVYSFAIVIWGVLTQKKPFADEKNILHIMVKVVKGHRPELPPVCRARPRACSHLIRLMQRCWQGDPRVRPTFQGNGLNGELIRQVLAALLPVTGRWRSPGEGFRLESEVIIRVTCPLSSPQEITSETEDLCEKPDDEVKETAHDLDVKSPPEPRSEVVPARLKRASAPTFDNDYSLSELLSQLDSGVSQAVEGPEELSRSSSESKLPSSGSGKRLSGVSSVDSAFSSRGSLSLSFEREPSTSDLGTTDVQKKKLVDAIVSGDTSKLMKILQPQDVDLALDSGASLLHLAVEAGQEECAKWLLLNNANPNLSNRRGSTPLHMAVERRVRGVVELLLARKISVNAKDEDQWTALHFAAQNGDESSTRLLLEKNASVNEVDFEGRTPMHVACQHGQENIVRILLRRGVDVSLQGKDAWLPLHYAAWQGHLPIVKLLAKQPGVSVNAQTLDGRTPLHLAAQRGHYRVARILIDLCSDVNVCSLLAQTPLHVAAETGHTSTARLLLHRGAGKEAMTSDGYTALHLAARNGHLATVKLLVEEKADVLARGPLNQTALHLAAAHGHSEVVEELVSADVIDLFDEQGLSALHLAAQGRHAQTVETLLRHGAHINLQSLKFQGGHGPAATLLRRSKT

c-Kit = c-Kit (Homo sapiens (Human), UniProt P10721); experiment: Wild type kinase screen: c-Kit; conditions: compound at 10 μM, 10 μM ATP, Data 1 and Data 2 duplicates
DDR2 = DDR2 (Homo sapiens (Human), UniProt Q16832); experiment: Wild type kinase screen: DDR2; conditions: compound at 10 μM, 10 μM ATP, Data 1 and Data 2 duplicates
human ACLY = human ACLY (Homo sapiens (Human), UniProt P53396); experiment: ATP-citrate lyase (ACLY) enzymatic assay (ADP-Glo); conditions: recombinant human ACLY; 10 concentrations from 300 μM; Runs 1-3; read-out: Compound IC50 (M) ACLY
Method: ATP citrate lyase was obtained from Sino Biological Inc. Cat #11769-H07B, Lot #LC08DE1701. It was prepared from a DNA sequence encoding the human ACLY (P53396) (Met 1-Met 1101) expressed in Baculovirus-Insect Cells, with a polyhistidine tag at the N-terminus. The recombinant human ACLY consists of 1120 amino acids and has a calculated molecular mass of 123 kDa. It migrates as an approximately 110 kDa band in SDS-PAGE under reducing conditions. The enzyme came as a lyophilized powder in sterile 20 mM Tris, 500 mM NaCl, pH 8.0, 10% glycine. Normally 5%-8% trehalose and mannitol are added as protectants before lyophilization. The recombinant human ACLY from Sino Biological was formulated in 45 mM Tris-HCl, pH 8.0, 124 mM NaCl, 2.4 mM KCl, 18 mM glutathione, 10% glycerol, and 3 mM DTT.
To detect ADP produced from ACL assay, the ADP-Glo™ assay format from Promega, Madison, WI, was used, to detect the conversion of ATP to ADP. […] This assay is performed in two steps: i) after the ACL-mediated enzymatic reaction that utilizes ATP and produces ADP, ADP-Glo™ Reagent is added to terminate the kinase reaction and deplete the remaining ATP, and ii) the Kinase Detection Reagent is added to convert ADP to ATP and allow the newly synthesized ATP to be measured using a luciferase/luciferin reaction. The light generated, measured in a luminometer, correlates to the amount of ADP generated in the ACL assay, which is indicative of ACL activity.
Data represent nM or μM ADP produced, % Activity (relative to no inhibitor controls), and curve fits were performed by GraphPad Prism software. The IC50 concentration-response curves were generated for ADPGlo™ using recombinant human ACL from Sino Biologicals Inc.

MAPKAPK2 = MAPKAPK2 (Homo sapiens (Human), UniProt P49137); experiment: Wild type kinase screen: MAPKAPK2; conditions: compound at 10 μM, 10 μM ATP, Data 1 and Data 2 duplicates
MAPKAPK2, sequence (P49137 whole entry, species assumed): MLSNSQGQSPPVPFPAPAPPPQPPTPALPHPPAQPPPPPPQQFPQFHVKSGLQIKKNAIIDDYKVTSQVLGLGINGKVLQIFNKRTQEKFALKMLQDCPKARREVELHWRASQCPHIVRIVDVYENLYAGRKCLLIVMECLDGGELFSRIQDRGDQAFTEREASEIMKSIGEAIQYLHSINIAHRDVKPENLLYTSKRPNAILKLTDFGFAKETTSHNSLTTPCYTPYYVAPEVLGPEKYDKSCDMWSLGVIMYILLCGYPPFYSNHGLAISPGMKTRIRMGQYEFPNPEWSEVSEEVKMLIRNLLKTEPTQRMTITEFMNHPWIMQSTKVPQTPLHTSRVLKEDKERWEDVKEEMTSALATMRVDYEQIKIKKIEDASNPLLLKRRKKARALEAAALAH

NEK2 = NEK2 (Homo sapiens (Human), UniProt P51955); experiment: Wild type kinase screen: NEK2; conditions: compound at 10 μM, 10 μM ATP, Data 1 and Data 2 duplicates
TNIK = TNIK (Homo sapiens (Human), UniProt Q9UKE5); experiment: Wild type kinase screen: TNIK; conditions: compound at 10 μM, 10 μM ATP, Data 1 and Data 2 duplicates
Aurora A = Aurora A (Homo sapiens (Human), UniProt O14965); experiment: Wild type kinase screen: Aurora A; conditions: compound at 10 μM, 10 μM ATP, Data 1 and Data 2 duplicates
GSK3b = GSK3b (Homo sapiens (Human), UniProt P49841); experiment: Wild type kinase screen: GSK3b; conditions: compound at 10 μM, 10 μM ATP, Data 1 and Data 2 duplicates
PIM3 = PIM3 (Homo sapiens (Human), UniProt Q86V86); experiment: Wild type kinase screen: PIM3; conditions: compound at 10 μM, 10 μM ATP, Data 1 and Data 2 duplicates
MELK = MELK (Homo sapiens (Human), UniProt Q14680); experiment: Wild type kinase screen: MELK; conditions: compound at 10 μM, 10 μM ATP, Data 1 and Data 2 duplicates
MELK, sequence (Q14680 whole entry, species assumed): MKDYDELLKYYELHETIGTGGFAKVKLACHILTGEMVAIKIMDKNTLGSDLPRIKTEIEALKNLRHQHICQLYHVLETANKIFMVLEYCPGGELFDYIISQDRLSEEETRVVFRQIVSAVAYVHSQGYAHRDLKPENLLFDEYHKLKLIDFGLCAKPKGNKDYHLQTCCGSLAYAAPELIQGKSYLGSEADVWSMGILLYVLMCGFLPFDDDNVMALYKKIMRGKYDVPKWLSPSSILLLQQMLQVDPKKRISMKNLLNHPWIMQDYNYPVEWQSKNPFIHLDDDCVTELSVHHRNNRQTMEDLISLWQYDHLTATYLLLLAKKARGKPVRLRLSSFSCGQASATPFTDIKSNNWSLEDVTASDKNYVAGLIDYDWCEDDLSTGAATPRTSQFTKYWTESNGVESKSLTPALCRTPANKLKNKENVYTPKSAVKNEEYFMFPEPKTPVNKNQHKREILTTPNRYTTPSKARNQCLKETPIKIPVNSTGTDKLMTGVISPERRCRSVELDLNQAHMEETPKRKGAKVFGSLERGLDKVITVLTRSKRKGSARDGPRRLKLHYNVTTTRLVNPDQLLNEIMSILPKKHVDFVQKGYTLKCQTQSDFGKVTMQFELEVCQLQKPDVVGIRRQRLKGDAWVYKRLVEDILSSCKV

CAMK2g = CAMK2g (Homo sapiens (Human), UniProt Q13555); experiment: Wild type kinase screen: CAMK2g; conditions: compound at 10 μM, 10 μM ATP, Data 1 and Data 2 duplicates
AURORA C = AURORA C (Homo sapiens (Human), UniProt Q9UQB9); experiment: Wild type kinase screen: AURORA C; conditions: compound at 10 μM, 10 μM ATP, Data 1 and Data 2 duplicates
FLT1/VEGFR1 = FLT1/VEGFR1 (Homo sapiens (Human), UniProt P17948); experiment: Wild type kinase screen: FLT1/VEGFR1; conditions: compound at 10 μM, 10 μM ATP, Data 1 and Data 2 duplicates
Human ACC1 = Human ACC1 (Homo sapiens (Human), UniProt Q13085); experiment: ACC1 enzymatic assay (ADP-Glo); conditions: recombinant human ACC1 5 nM; 10 concentrations from 300 μM; Runs 1-3; read-out: Compound IC50 (M) ACC1
Method: as §1, §2
Data represent nM or μM ADP produced, % Activity (relative to no inhibitor controls), and curve fits were performed by GraphPad Prism software. […]

Row | SMILES | % Enzyme Activity (relative to DMSO controls) (BMX/ETK) | % Enzyme Activity (relative to DMSO controls) (LIMK1) | IC50 (Human ACC2) | % Enzyme Activity (relative to DMSO controls) (Aurora B) | % Enzyme Activity (relative to DMSO controls) (MLCK/MYLK) | % Enzyme Activity (relative to DMSO controls) (ERK7/MAPK15) | % Enzyme Activity (relative to DMSO controls) (RIPK4) | % Enzyme Activity (relative to DMSO controls) (c-Kit) | % Enzyme Activity (relative to DMSO controls) (DDR2) | IC50 (human ACLY) | % Enzyme Activity (relative to DMSO controls) (MAPKAPK2) | % Enzyme Activity (relative to DMSO controls) (NEK2) | % Enzyme Activity (relative to DMSO controls) (TNIK) | % Enzyme Activity (relative to DMSO controls) (Aurora A) | % Enzyme Activity (relative to DMSO controls) (GSK3b) | % Enzyme Activity (relative to DMSO controls) (PIM3) | % Enzyme Activity (relative to DMSO controls) (MELK) | % Enzyme Activity (relative to DMSO controls) (CAMK2g) | % Enzyme Activity (relative to DMSO controls) (AURORA C) | % Enzyme Activity (relative to DMSO controls) (FLT1/VEGFR1) | further results
1 | CC(C)(CCCCc1ccc(CCCCC(C)(C)C(=O)SCCNC(=O)CCNC(=O)[C@H](O)C(C)(C)COP(=O)(O)OP(=O)(O)OC[C@H]2O[C@@H](n3cnc4c(N)ncnc43)[C@H](O)[C@@H]2OP(=O)(O)O)cc1)C(=O)O [Compound I-1-CoA, 6-[4-(5-carboxy-5-methylhexyl)-phenyl]-2,2-dimethylhexanoic acid Coenzyme A ester] | 49.55% and 47.76% | 77.88% and 76.61% | 9.41e-06 M and 7.72e-06 M and 9.06e-06 M | 36.79% and 32.68% | 2.06% and −0.71% | 51.57% and 45.02% | 32.26% and 29.70% | 73.56% and 73.24% | 88.28% and 79.94% | 3.34e-06 M and 2.28e-06 M and 2.5e-06 M | 85.04% and 84.66% | 0.89% and 0.63% | 39.22% and 36.50% | 12.44% and 12.42% | 63.29% and 62.44% | 73.92% and 70.32% | 23.02% and 21.99% | 53.91% and 53.05% | 78.81% and 72.15% | 84.17% and 82.94% | IC50 (Human ACC1): 1.63e-05 M and 1.33e-05 M and 1.25e-05 M
2 | CC(C)(CCCCc1cccc(CCCCC(C)(C)C(=O)SCCNC(=O)CCNC(=O)[C@H](O)C(C)(C)COP(=O)(O)OP(=O)(O)OC[C@H]2O[C@@H](n3cnc4c(N)ncnc43)[C@H](O)[C@@H]2OP(=O)(O)O)c1)C(=O)O [Compound I-32-CoA, 6-[3-(5—Carboxy-5-methylhexyl)-phenyl]-2,2-dimethylhexanoic acid Coenzyme A Ester] | 49.54% and 43.87% | 47.31% and 45.01% | 5.02e-06 M and 4.22e-06 M and 3.33e-06 M | 33.27% and 30.67% | 3.21% and 1.59% | 88.39% and 80.61% | 33.02% and 32.84% | 49.53% and 49.21% | 29.98% and 25.40% | 9.88e-07 M and 1.22e-06 M and 1.44e-06 M | 17.17% and 15.90% | 35.98% and 34.99% | 70.02% and 66.13% | 13.04% and 11.95% | 23.69% and 22.51% | 51.10% and 43.67% | 28.56% and 27.35% | 35.05% and 34.20% | 48.46% and 46.83% | 52.06% and 51.61% | IC50 (Human ACC1): 5.07e-06 M and 5e-06 M and 6.03e-06 M
